pEC50, pKi: −log10 of the molar value. Like-named read-outs stand apart in the source and are kept apart here.
Legend:
[1] = tested on: human neutrophils; experiment: Human neutrophil oxidative activity, luminol-enhanced chemiluminescence; assay type: cell-based; settings: fMLP-stimulated peak chemiluminescence
Text: Chemiluminescence Methods: Luminol enhanced chemiluminescence, a measure of neutrophil oxidative activity, is dependent upon both superoxide production and mobilization of the granule enzyme myeloperoxidase. The light is emitted from unstable high-energy oxygen species such as hypochlorous acid and singlet oxygen generated by activated neutrophils.
Purified human neutrophils (2×10^6/ml) suspended in Hanks balanced salt solution containing 0.1% human serum albumin (HA), adenosine deaminase (1 U/mL) and rolipram (100 nM) were incubated (37° C.) in a water bath for 15 min with or without rhTNF(10 U/ml). Following incubation 100 µL aliquots of the PMN were transferred to wells (White walled clear bottom 96 well tissue culture plates Costar #3670; 2 wells/condition) containing […] and luminol (final concentration 100 µM) with or without adenosine agonist (final agonist concentrations 0.01-1000 nM). The plate was incubated 5 min (37° C.) and then fMLP (501 in HA; final concentration […]) was added to all wells.
Peak chemiluminescence was determined with a Victor 1420 Multilabel Counter in the chemiluminescence mode using the Wallace Workstation software. Data are presented as peak chemiluminescence as percent of activity in the absence of an adenosine agonist. The EC50 was determined using PRISM software. All compounds were tested with PMNs from three separate donors.
f-met-leu-phe (fMLP), luminol, superoxide dismutase, cytochrome C, fibrinogen, adenosine deaminase, and trypan blue were obtained from Sigma Chemical. Ficoll-hypaque was purchased from ICN (Aurora, Ohio), and Cardinal Scientific (Santa Fe, N. Mex.) and Accurate Chemicals and Scientific (Westerbury, N.Y.). Endotoxin (lipopolysaccharide; E. coli K235) was from List Biologicals (Campbell, Calif.). Hanks balanced salt solution (HBSS), and limulus amebocyte lysate assay kit were from BioWittaker (Walkersville, Md.). Human serum albumin (HSA) was from Cutter Biological (Elkhart, Ind.). Recombinant human tumor necrosis factor-alpha was supplied by Dianippon Pharmaceutical Co. Ltd. (Osaka, Japan). ZM241385 (4-(2-[7-amino-2-(2-furyl) [1,2,4]triazolo[2,3-a][1,3,5]triazin-5-yl amino]ethyl)phenol) was a gift from Simon Poucher, Zeneca Pharmaceuticals, Cheshire, UK. Stock solutions (1 mM and 10 mM in DMSO) were made and stored at −20° C.
Purified neutrophils (−98% neutrophils and >95% viable by trypan blue exclusion) containing <1 platelet per 5 neutrophils and <50 pg/ml endotoxin (limulus amebocyte lysate assay) were obtained from normal heparinized (10 U/ml) venous blood by a one step Ficoll-hypaque separation procedure (A. Ferrante et al., J. Immunol. Meth., 36, 109 (1980)).
Luminol-enhanced chemiluminescence, a measure of neutrophil oxidative activity, is dependent upon both superoxide production and mobilization of the lysosomal granule enzyme myeloperoxidase. The light is emitted from unstable high-energy oxygen species generated by activated neutrophils. Purified neutrophils (5-10×10^5/ml) were incubated in Hanks balanced salt solution containing 0.1% human serum albumin (1 ml) with the tested A2A agonist with or without rolipram and with or without tumor necrosis factor-alpha (1 U/ml) for 30 minutes at 37° C. in a shaking water bath. Then luminol (1×10^−4 M) enhanced f-met-leu-phe (1 mcM) stimulated chemiluminescence was read with a Chronologo Photometer (Crono-log Corp., Havertown, Pa.) at 37° C. for 2-4 minutes. Chemiluminescence is reported as relative peak light emitted (=height of the curve) compared to samples with tumor necrosis factor-alpha and without agonist or rolipram.

[2] = biological target: T1, A3 AR (Homo sapiens, UniProt P0DMS8); experiment: Radioligand competition binding, human A3 AR; settings: binding affinity; 125I-ABA; membranes of HEK 293 cells stably expressing human A3 AR
T1 construct: expressed in transfected cells; membranes
T1 sequence (P0DMS8 1-318): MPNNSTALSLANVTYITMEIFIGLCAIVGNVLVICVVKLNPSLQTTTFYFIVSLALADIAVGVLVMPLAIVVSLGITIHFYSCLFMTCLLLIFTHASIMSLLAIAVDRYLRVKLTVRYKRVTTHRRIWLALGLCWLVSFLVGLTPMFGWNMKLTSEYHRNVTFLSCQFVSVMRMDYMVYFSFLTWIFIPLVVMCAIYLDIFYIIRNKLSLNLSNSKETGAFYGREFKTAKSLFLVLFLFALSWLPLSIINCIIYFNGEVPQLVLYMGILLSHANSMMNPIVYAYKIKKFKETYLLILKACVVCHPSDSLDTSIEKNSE
Experimental: (§1) Sf9 cells were cultured in Grace's medium supplemented with 10% fetal bovine serum, 2.5 μg/ml amphotericin B and 50 μg/ml gentamycin in an atmosphere of 50% N2/50% O2. Viral infection was performed at a density of 2.5×10^6 cells/mL with a multiplicity of infection of two for each virus used. Infected cells were harvested 3 days post-infection and washed twice in insect PBS (PBS pH 6.3). Cells were then resuspended in lysis buffer (20 mM HEPES pH 7.5, 150 mM NaCl, 3 mM MgCl2, 1 mM β-mercaptoethanol (BME), 5 μg/mL leupeptin, 5 μg/mL pepstatin A, 1 μg/mL aprotinin, and 0.1 mM PMSF) and snap frozen for storage at −80° C. Cells were thawed on ice, brought to 30 mL total volume in lysis buffer, and burst by N2 cavitation (600 psi for 20 minutes). A low-speed centrifugation was performed to remove any unlysed cells (1000×g for 10 minutes), followed by a high-speed centrifugation (17,000×g for 30 minutes). The pellet from the final centrifugation was homogenized in buffer containing 20 mM HEPES pH 8, 100mM NaCl, 1% glycerol, 2 μg/mL leupeptin, 2 μg/mL pepstatin A, 2 μg/mL Aprotinin, 0.1 mM PMSF, and 10 μM GDP using a small glass homogenizer followed by passage through a 26 gauge needle. Membranes were aliquoted, snap frozen in liquid N2, and stored at −80° C. Membranes from cells stably expressing the human A1 AR(CHO K1 cells) or A3 AR(HEK 293 cells) were prepared as described (Robeva et al., 1996).
(§2) Radioligand binding to recombinant human A2A receptors in Sf9 cell membranes was performed using either the radio labeled agonist, ^125I-APE (Luthin et al., 1995) or the radio labeled antagonist, ^125I-ZM241385 (^125I-ZM). To detect the high affinity, GTPγS-sensitive state of A1 and A3AR, we used the agonist, ^125I-ABA (Linden et al., 1985; Linden et al., 1993). Binding experiments were performed in triplicate with 5 μg (A2A) or 25 μg (A1 and A3) membrane protein in a total volume of 0.1 mL HE buffer (20 mM HEPES and 1 mM EDTA) with 1 U/mL adenosine deaminase and 5 mM MgCl2 with or without 50 μM GTPγS. Membranes were incubated with radioligands at room temperature for three hours (for agonists) or two hours (for antagonists) in Millipore Multiscreen® 96-well GF/C filter plates and assays were terminated by rapid filtration on a cell harvester (Brandel, Gaithersburg, Md.) followed by 4×150 μl washes over 30 seconds with ice cold 10 mM Tris-HCl, pH 7.4, 10 mM MgCl2. Nonspecific binding was measured in the presence of 50 μM NECA. Competition binding assays were performed as described (Robeva et al., 1996) using 0.5-1 nM ^125I-APE, ^125I-ZM241385, or ^125I-ABA. […]

[3] = biological target: T2, recombinant human A2A receptors (Homo sapiens, UniProt P29274); experiment: Radioligand competition binding, recombinant human A2A receptors; settings: binding affinity; 125I-APE or 125I-ZM241385; Sf9 cell membranes
T2 construct: expressed in transfected cells; host or cells: Sf9 insect cells, viral infection; membranes
T2 sequence (P29274 whole entry): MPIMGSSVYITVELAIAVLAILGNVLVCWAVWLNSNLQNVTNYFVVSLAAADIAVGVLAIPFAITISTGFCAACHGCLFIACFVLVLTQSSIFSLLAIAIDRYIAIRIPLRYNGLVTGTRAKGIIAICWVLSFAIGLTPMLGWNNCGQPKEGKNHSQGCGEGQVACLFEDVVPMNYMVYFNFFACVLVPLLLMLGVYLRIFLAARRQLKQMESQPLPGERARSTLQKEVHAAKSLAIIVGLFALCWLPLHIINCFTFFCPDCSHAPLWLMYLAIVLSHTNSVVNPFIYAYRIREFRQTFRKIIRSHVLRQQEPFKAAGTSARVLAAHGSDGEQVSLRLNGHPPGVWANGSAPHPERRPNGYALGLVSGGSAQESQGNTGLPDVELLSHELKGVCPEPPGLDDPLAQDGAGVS
Experimental: as §1, §2

[4] = biological target: T3, human A1 AR (Homo sapiens, UniProt P30542); experiment: Radioligand competition binding, human A1 AR; settings: binding affinity; 125I-ABA; membranes of CHO K1 cells stably expressing human A1 AR
T3 construct: expressed in transfected cells; membranes
T3 sequence (P30542 1-326): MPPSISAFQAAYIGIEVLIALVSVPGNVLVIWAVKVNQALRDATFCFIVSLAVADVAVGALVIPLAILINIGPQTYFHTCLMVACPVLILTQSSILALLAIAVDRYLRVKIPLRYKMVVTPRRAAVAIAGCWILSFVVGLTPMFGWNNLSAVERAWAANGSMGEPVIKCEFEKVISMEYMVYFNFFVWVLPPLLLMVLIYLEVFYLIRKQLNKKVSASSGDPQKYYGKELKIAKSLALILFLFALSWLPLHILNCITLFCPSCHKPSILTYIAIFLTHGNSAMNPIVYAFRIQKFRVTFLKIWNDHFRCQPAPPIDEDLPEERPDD
Experimental: as §1, §2

[5] = human neutrophil experiment with Rolipram, read-out: Functional + Roli
[6] = human neutrophil experiment without Rolipram, read-out: Functional

Structure (SMILES) | pEC50 [1, 5] | pEC50 [1, 6] | pKi [2] | pKi [3] | pKi [4]
COC(=O)C1CCC(CC#Cc2nc(N)c3ncn([C@@H]4O[C@H](C(=O)NC5CC5)C(O)C4O)c3n2)CC1 (stereo in doubt) [Example 1, 4-{3-[6-Amino-9-(5-cyclopropylcarbamoyl-3,4-dihydroxy-tetrahydro-furan-2-yl)-9H-purin-2-yl]-prop-2-ynyl}-cyclohexanecarboxylic acid methyl ester] | 9.70 | 8.70 | 7.47 | 9.24 | 7.49
Nc1nc(I)nc2c1ncn2[C@@H]1O[C@H](C(=O)NC2CC2)C(O)C1O (stereo in doubt) [Example 4, 5-(6-Amino-2-iodo-purin-9-yl)-3,4-dihydroxy-tetrahydro-furan-2-carboxylic acid cyclopropylamide] | 9.70 | 8.70 | 7.35 | 9.22 | 7.48
COC(=O)N1CCC(CC#Cc2nc(N)c3ncn([C@@H]4O[C@H](C(=O)NC5CC5)C(O)C4O)c3n2)CC1 (stereo in doubt) [Example 2, 4-{3-[6-Amino-9-(5-cyclopropylcarbamoyl-3,4-dihydroxy-tetrahydro-furan-2-yl)-9H-purin-2-yl]-prop-2-ynyl}-piperidine-1-carboxylic acid methyl ester] | 9.70 | 8.70 | 6.61 | 9.15 | 7.24
C[C@@H]1CCC[C@@](O)(C#Cc2nc(N)c3ncn([C@@H]4O[C@H](C(=O)NC5CC5)C(O)C4O)c3n2)C1 (stereo in doubt) [Example 3, 5-[6-Amino-2-(1-hydroxy-3-methyl-cyclohexylethynyl)-purin-9-yl]-3,4-dihydroxy-tetrahydro-furan-2-carboxylic acid cyclopropylamide] | 10.40 | 9.52 | 8.52 | 9.30 | 8.82
